The values below are quoted from earlier work in US6899896B2, “Hydrogel-driven layered drug dosage form” (Pfizer Inc, priority 1999, dated 2005).

Where two headings read alike, the source gives them in different places.

`CN[C@H]1CC[C@@H](c2ccc(Cl)c(Cl)c2)c2ccccc21` [Sertraline, (1S-cis)-4-(3,4-dichlorophenyl)-1,2,3,4-tetrahydro-N-methyl-1-naphthalenamine]: the solubility of sertraline runs as follows: (pH 2.0) 6 mgA/mL; (pH 6.5) “about 1 mgA/mL”; (pH about 7.0) “about 0.2 mgA/mL”; (pH about 7.5) “about 0.05 mgA/mL”.
